The values below come from ChEMBL document CHEMBL1250439, “2-phenyl-1-[4-(2-piperidine-1-yl-ethoxy)benzyl]-1H-benzimidazoles as ligands for the estrogen receptor: synthesis and pharmacological evaluation” (Bioorg Med Chem, 2010).

Experiment [1] relates to MCF7. In words: Cytostatic activity against human MCF7 cells at 10 uM after 3 days by microtiter assay. In kind it is functional.
Experiment [2] has as its system MCF7. In words: Cytostatic activity against human MCF7 cells at 5 uM after 3 days by microtiter assay. The class given is functional.
In a further experiment the test system is MDA-MB-231. In words: Cytostatic activity against human MDA-MB-231 cells after 3 days by microtiter assay. In kind it is functional, cell-based.
In another experiment the target is T1, Adenosine receptor A1 (Rattus norvegicus, UniProt P25099).
T1 sequence (P25099 whole entry): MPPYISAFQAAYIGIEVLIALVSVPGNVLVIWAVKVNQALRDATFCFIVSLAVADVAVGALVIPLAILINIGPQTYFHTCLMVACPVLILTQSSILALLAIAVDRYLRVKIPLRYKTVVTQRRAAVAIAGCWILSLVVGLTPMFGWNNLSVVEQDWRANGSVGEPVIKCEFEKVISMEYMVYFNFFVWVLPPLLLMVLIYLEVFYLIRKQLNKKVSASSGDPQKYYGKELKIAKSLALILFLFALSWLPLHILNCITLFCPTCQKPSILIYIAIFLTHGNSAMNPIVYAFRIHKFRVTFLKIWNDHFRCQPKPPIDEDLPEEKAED
Put plainly: Displacement of [3H]CCPA from adenosine A1 receptor in rat brain cortical membrane. The class given is cell membranes.

The subject of another experiment is Calf thymus DNA. In words: Binding affinity to calf thymus DNA assessed as change in melting temperature. The conditions noted are these: Bos taurus. The class given is nucleic-acid assay.
In experiment [3] the target is T2, Estrogen receptor (Homo sapiens, UniProt P03372).
T2 sequence (P03372 whole entry): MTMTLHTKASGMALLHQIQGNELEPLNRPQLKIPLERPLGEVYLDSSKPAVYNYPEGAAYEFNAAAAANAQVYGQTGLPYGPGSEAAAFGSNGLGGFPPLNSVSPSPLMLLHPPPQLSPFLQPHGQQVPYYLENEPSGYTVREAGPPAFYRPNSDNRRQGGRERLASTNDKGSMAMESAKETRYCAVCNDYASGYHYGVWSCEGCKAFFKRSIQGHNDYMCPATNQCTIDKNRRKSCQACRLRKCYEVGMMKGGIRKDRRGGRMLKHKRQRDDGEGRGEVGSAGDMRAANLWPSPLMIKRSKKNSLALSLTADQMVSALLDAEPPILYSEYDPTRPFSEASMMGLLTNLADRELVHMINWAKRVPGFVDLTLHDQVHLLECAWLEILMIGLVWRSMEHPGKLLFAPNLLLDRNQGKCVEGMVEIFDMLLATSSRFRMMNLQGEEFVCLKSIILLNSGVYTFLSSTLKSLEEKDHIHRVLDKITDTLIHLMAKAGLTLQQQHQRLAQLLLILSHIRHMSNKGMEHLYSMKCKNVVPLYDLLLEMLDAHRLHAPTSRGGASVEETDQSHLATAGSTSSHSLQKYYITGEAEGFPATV
In words: Antagonist activity at human ERalpha expressed in human MCF7 cells at 10 uM by luciferase reporter gene assay. The class given is functional, cell-based. For orientation: A reporter such as luciferase makes a cellular process visible.

Experiment [4] concerns MCF7. Put plainly: Cytostatic activity against human MCF7 cells at 1 uM after 3 days by microtiter assay. The class given is functional.
Experiment [5] has as its target T2, Estrogen receptor. Put plainly: Antagonist activity at human ERalpha expressed in human MCF7 cells by luciferase reporter gene assay. The class given is functional, cell-based.
For experiment [6], the target named is T3, Estrogen receptor (Homo sapiens) (UniProt P03372).
T3 sequence (whole entry): T2 sequence (P03372 whole entry)
In words: Displacement of [3H]E2 from human estrogen receptor alpha relative to control.

In experiment [7] the target is Estrogen receptor beta (Homo sapiens) (UniProt Q92731). In words: Displacement of [3H]E2 from human estrogen receptor beta relative to control.

Usually T/C stands for the result in the treated group divided by that in the control group, in per cent. The Ki is the equilibrium dissociation constant of an inhibitor or competing ligand from its target. Higher therefore signals lower affinity. Broadly, the ΔTm is the change in melting temperature against a reference sample. The term IC50 denotes the concentration at which inhibition is half-maximal. The low end stands for higher potency, the high end for lower potency.

Calls of active or inactive are those of the source. The rule behind the calls is not given here.

Estrogen receptor beta (Homo sapiens), sequence (Q92731 whole entry): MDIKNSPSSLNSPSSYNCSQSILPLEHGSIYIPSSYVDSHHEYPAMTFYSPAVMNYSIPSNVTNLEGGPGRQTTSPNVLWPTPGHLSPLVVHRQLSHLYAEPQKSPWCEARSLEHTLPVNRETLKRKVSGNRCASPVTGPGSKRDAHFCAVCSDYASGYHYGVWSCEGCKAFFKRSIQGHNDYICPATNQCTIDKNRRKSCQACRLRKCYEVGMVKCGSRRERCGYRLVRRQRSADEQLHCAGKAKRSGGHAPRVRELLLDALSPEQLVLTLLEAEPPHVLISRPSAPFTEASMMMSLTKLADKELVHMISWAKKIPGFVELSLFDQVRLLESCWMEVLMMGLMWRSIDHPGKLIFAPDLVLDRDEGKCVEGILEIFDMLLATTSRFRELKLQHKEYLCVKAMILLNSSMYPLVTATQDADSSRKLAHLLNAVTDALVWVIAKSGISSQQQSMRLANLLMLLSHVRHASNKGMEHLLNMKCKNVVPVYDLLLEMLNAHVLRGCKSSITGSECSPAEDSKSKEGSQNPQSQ

Take `CC/C(=C(\c1ccccc1)c1ccc(OCCN(C)C)cc1)c1ccccc1` [TAMOXIFEN]: the result in the experiment with MCF7 [1] was inactive. Further, the T/C with MCF7 [2] is 0%. The result with MDA-MB-231 was Active.

On to `CCC(=C(c1ccc(O)cc1)c1ccc(OCCN(C)C)cc1)c1ccccc1`, for which the outcome with MCF7 [1] was inactive. The same compound showed a T/C with MCF7 [2] of 0%. Also, the result in the experiment with MDA-MB-231 was Active.

Turning to `Oc1ccc(-c2nc3cc(O)ccc3n2Cc2ccc(OCCN3CCCCC3)cc2)cc1`, affinity at Adenosine receptor A1 was put at a Ki of 3.7 µM. Also, the shift in melting temperature (ΔTm) with Calf thymus DNA is 3 °C.

Regarding `Oc1ccc(-c2nc3ccccc3n2Cc2ccc(OCCN3CCCCC3)cc2)cc1`, the T/C in the experiment on MCF7 [1] is on record as <0%; in the experiment with MCF7 [4], 50%; in the experiment with MCF7 [2], 0%. The IC50 against Estrogen receptor [3] came to 5.1 µM. In addition, the ΔTm in the experiment with Calf thymus DNA was 3 °C.

Consider `Oc1ccc2nc(-c3ccccc3)n(Cc3ccc(OCCN4CCCCC4)cc3)c2c1`, for which the T/C is recorded as <0% in the experiment with MCF7 [1], 50% with MCF7 [4] and 0% in the experiment on MCF7 [2]. In addition, the ΔTm with Calf thymus DNA worked out at 3 °C. The compound further registered an IC50 on Estrogen receptor [5] of 0.31 µM.

In the case of `Oc1ccc2c(c1)nc(-c1ccccc1)n2Cc1ccc(OCCN2CCCCC2)cc1`, the T/C was <0% in the experiment with MCF7 [1], 50% in the experiment on MCF7 [4] and 0% with MCF7 [2]. Further, the RBA in experiment [6] came to 0.43%; in experiment [7], 0.54%. In addition, the ΔTm in the experiment with Calf thymus DNA is 3 °C.

In the case of `Oc1ccc(-c2nc3ccc(O)cc3n2Cc2ccc(OCCN3CCCCC3)cc2)cc1`, the Ki at Adenosine receptor A1 was ≤ 3.7 µM. Further, the ΔTm in the experiment with Calf thymus DNA was determined as 3 °C.

In the case of `O=C(c1ccc(OCCN2CCCCC2)cc1)c1c(-c2ccc(O)cc2)sc2cc(O)ccc12` [RALOXIFENE], the result with MCF7 [1] was inactive. In the experiment on MCF7 [2], the T/C is listed as 0%. The outcome in the experiment with MDA-MB-231 was Active.
